Assay results: ChEMBL document CHEMBL1275533, “In vitro antibacterial activity of vertilmicin and its susceptibility to modifications by the recombinant AAC6'-APH2'' enzyme” (2008)
Converted amounts (≈) assume the structure as drawn. The source made the active and inactive calls. No cut-off for these calls is given here.

Columns and labels:
Staphylococcus aureus [1] = experiment: Antibacterial activity against non-gentamicin-resistant Staphylococcus aureus clinical isolate assessed as susceptible isolates after 18 hrs by agar dilution method; type: functional
Pseudomonas aeruginosa [2] = experiment: Antibacterial activity against gentamicin-resistant Pseudomonas aeruginosa clinical isolate after 18 hrs by agar dilution method; type: functional
Pseudomonas sp. [3] = experiment: Antibacterial activity against gentamicin-resistant Pseudomonas spp. clinical isolate after 18 hrs by agar dilution method; type: functional
Escherichia coli [4] = experiment: Antibacterial activity against gentamicin-resistant Escherichia coli clinical isolate after 18 hrs by agar dilution method; type: functional
Pseudomonas aeruginosa [5] = experiment: Antibacterial activity against non-gentamicin-resistant Pseudomonas aeruginosa clinical isolate assessed as susceptible isolates after 18 hrs by agar dilution method; type: functional
Pseudomonas aeruginosa [6] = experiment: Antibacterial activity against non-gentamicin-resistant Pseudomonas aeruginosa clinical isolate after 18 hrs by agar dilution method; type: functional
Serratia marcescens = experiment: Antibacterial activity against non-gentamicin-resistant Serratia marcescens clinical isolate assessed as susceptible isolates after 18 hrs by agar dilution method; type: functional
[7] = test system: Haemophilus parainfluenzae; experiment: Antibacterial activity against non-gentamicin-resistant Haemophilus parainfluenzae clinical isolate after 18 hrs by agar dilution method; type: functional
Escherichia coli [8] = experiment: Antibacterial activity against non-gentamicin-resistant Escherichia coli clinical isolate assessed as susceptible isolates after 18 hrs by agar dilution method; type: functional
Staphylococcus aureus [9] = experiment: Antibacterial activity against gentamicin-resistant Staphylococcus aureus clinical isolate assessed as susceptible isolates after 18 hrs by agar dilution method; type: functional
Klebsiella pneumoniae [10] = experiment: Antibacterial activity against gentamicin-resistant Klebsiella pneumoniae clinical isolate assessed as susceptible isolates after 18 hrs by agar dilution method; type: functional
Staphylococcus aureus [11] = experiment: Antibacterial activity against non-gentamicin-resistant Staphylococcus aureus clinical isolate after 18 hrs by agar dilution method; type: functional
Morganella morganii [12] = experiment: Antibacterial activity against non-gentamicin-resistant Morganella morganii clinical isolate after 18 hrs by agar dilution method; type: functional
Enterobacter cloacae [13] = experiment: Antibacterial activity against gentamicin-resistant Enterobacter cloacae clinical isolate after 18 hrs by agar dilution method; type: functional
[14] = test system: Staphylococcus epidermidis; experiment: Antibacterial activity against gentamicin-resistant Staphylococcus epidermidis clinical isolate assessed as susceptible isolates after 18 hrs by agar dilution method; type: functional
Proteus mirabilis [15] = experiment: Antibacterial activity against non-gentamicin-resistant Proteus mirabilis clinical isolate assessed as susceptible isolates after 18 hrs by agar dilution method; type: functional
[16] = test system: Staphylococcus epidermidis; experiment: Antibacterial activity against non-gentamicin-resistant Staphylococcus epidermidis clinical isolate after 18 hrs by agar dilution method; type: functional
Citrobacter koseri [17] = experiment: Antibacterial activity against non-gentamicin-resistant Citrobacter diversus clinical isolate assessed as susceptible isolates after 18 hrs by agar dilution method; type: functional
Enterococcus faecalis [18] = experiment: Antibacterial activity against gentamicin-resistant Enterococcus faecalis clinical isolate after 18 hrs by agar dilution method; type: functional
Staphylococcus aureus [19] = experiment: Antibacterial activity against gentamicin-resistant Staphylococcus aureus clinical isolate after 18 hrs by agar dilution method; type: functional
Klebsiella aerogenes [20] = experiment: Antibacterial activity against gentamicin-resistant Enterobacter aerogenes clinical isolate after 18 hrs by agar dilution method; type: functional
Citrobacter koseri [21] = experiment: Antibacterial activity against gentamicin-resistant Citrobacter diversus clinical isolate after 18 hrs by agar dilution method; type: functional
Providencia rettgeri [22] = experiment: Antibacterial activity against gentamicin-resistant Proteus rettgeri clinical isolate after 18 hrs by agar dilution method; type: functional
Klebsiella pneumoniae [23] = experiment: Antibacterial activity against gentamicin-resistant Klebsiella pneumoniae clinical isolate after 18 hrs by agar dilution method; type: functional
Klebsiella pneumoniae [24] = experiment: Antibacterial activity against non-gentamicin-resistant Klebsiella pneumoniae clinical isolate assessed as susceptible isolates after 18 hrs by agar dilution method; type: functional
Enterobacter cloacae [25] = experiment: Antibacterial activity against non-gentamicin-resistant Enterobacter cloacae clinical isolate after 18 hrs by agar dilution method; type: functional
Pseudomonas aeruginosa [26] = experiment: Antibacterial activity against gentamicin-resistant Pseudomonas aeruginosa clinical isolate assessed as susceptible isolates after 18 hrs by agar dilution method; type: functional
Citrobacter koseri [27] = experiment: Antibacterial activity against gentamicin-resistant Citrobacter diversus clinical isolate assessed as susceptible isolates after 18 hrs by agar dilution method; type: functional
Providencia rettgeri [28] = experiment: Antibacterial activity against non-gentamicin-resistant Proteus rettgeri clinical isolate after 18 hrs by agar dilution method; type: functional
Providencia rettgeri [29] = experiment: Antibacterial activity against non-gentamicin-resistant Proteus rettgeri clinical isolate assessed as susceptible isolates after 18 hrs by agar dilution method; type: functional
Pseudomonas sp. [30] = experiment: Antibacterial activity against non-gentamicin-resistant Pseudomonas spp. clinical isolate after 18 hrs by agar dilution method; type: functional
Haemophilus influenzae = experiment: Antibacterial activity against non-gentamicin-resistant Haemophilus influenzae clinical isolate assessed as susceptible isolates after 18 hrs by agar dilution method; type: functional, organism-based
Citrobacter freundii = experiment: Antibacterial activity against non-gentamicin-resistant Citrobacter freundii clinical isolate after 18 hrs by agar dilution method; type: functional
Enterococcus faecalis [31] = experiment: Antibacterial activity against gentamicin-resistant Enterococcus faecalis clinical isolate assessed as susceptible isolates after 18 hrs by agar dilution method; type: functional, organism-based
Proteus mirabilis [32] = experiment: Antibacterial activity against non-gentamicin-resistant Proteus mirabilis clinical isolate after 18 hrs by agar dilution method; type: functional
Klebsiella pneumoniae [33] = experiment: Antibacterial activity against non-gentamicin-resistant Klebsiella pneumoniae clinical isolate after 18 hrs by agar dilution method; type: functional
[34] = test system: Staphylococcus epidermidis; experiment: Antibacterial activity against non-gentamicin-resistant Staphylococcus epidermidis clinical isolate assessed as susceptible isolates after 18 hrs by agar dilution method; type: functional
Enterobacter cloacae [35] = experiment: Antibacterial activity against non-gentamicin-resistant Enterobacter cloacae clinical isolate assessed as susceptible isolates after 18 hrs by agar dilution method; type: functional
[36] = test system: Acinetobacter calcoaceticus; experiment: Antibacterial activity against non-gentamicin-resistant Acinetobacter calcoaceticus clinical isolate assessed as susceptible isolates after 18 hrs by agar dilution method; type: functional
Providencia rettgeri [37] = experiment: Antibacterial activity against gentamicin-resistant Proteus rettgeri clinical isolate assessed as susceptible isolates after 18 hrs by agar dilution method; type: functional
Klebsiella aerogenes [38] = experiment: Antibacterial activity against non-gentamicin-resistant Enterobacter aerogenes clinical isolate after 18 hrs by agar dilution method; type: functional
Morganella morganii [39] = experiment: Antibacterial activity against gentamicin-resistant Morganella morganii clinical isolate assessed as susceptible isolates after 18 hrs by agar dilution method; type: functional
Klebsiella aerogenes [40] = experiment: Antibacterial activity against non-gentamicin-resistant Enterobacter aerogenes clinical isolate assessed as susceptible isolates after 18 hrs by agar dilution method; type: functional
[41] = test system: Acinetobacter calcoaceticus; experiment: Antibacterial activity against gentamicin-resistant Acinetobacter calcoaceticus clinical isolate after 18 hrs by agar dilution method; type: functional
Morganella morganii [42] = experiment: Antibacterial activity against gentamicin-resistant Morganella morganii clinical isolate after 18 hrs by agar dilution method; type: functional

NCC[C@H](O)C(=O)N[C@@H]1C[C@H](N)[C@@H](O[C@H]2O[C@H](CN)[C@@H](O)[C@H](O)[C@H]2O)[C@H](O)[C@H]1O[C@H]1O[C@H](CO)[C@@H](O)[C@H](N)[C@H]1O [AMIKACIN]
Activity (Staphylococcus aureus [1]): 100% | MIC50 (Pseudomonas aeruginosa [2]): 8 µg/mL (≈ 13.7 µM) | MIC90 (Pseudomonas aeruginosa [2]): 32 µg/mL (≈ 54.6 µM) | MIC50 (Pseudomonas sp. [3]): > 128 µg/mL | MIC90 (Pseudomonas sp. [3]): > 128 µg/mL | MIC50 (Escherichia coli [4]): 1 µg/mL (≈ 1.71 µM) | MIC90 (Escherichia coli [4]): 4 µg/mL (≈ 6.83 µM) | Activity (Pseudomonas aeruginosa [5]): 100% | MIC50 (Pseudomonas aeruginosa [6]): 4 µg/mL (≈ 6.83 µM) | MIC90 (Pseudomonas aeruginosa [6]): 16 µg/mL (≈ 27.3 µM) | Activity (Serratia marcescens): 96.3% | MIC50 [7]: 4 µg/mL (≈ 6.83 µM) | MIC90 [7]: 8 µg/mL (≈ 13.7 µM) | Activity (Escherichia coli [8]): 100% | Activity (Staphylococcus aureus [9]): 80.6% | Activity (Klebsiella pneumoniae [10]): 82.1% | MIC50 (Staphylococcus aureus [11]): 1 µg/mL (≈ 1.71 µM) | MIC90 (Staphylococcus aureus [11]): 2 µg/mL (≈ 3.42 µM) | MIC50 (Morganella morganii [12]): 1 µg/mL (≈ 1.71 µM) | MIC90 (Morganella morganii [12]): 2 µg/mL (≈ 3.42 µM) | MIC50 (Enterobacter cloacae [13]): 16 µg/mL (≈ 27.3 µM) | MIC90 (Enterobacter cloacae [13]): 32 µg/mL (≈ 54.6 µM) | Activity [14]: 73.1% | Activity (Proteus mirabilis [15]): 100% | MIC50 [16]: 0.5 µg/mL (≈ 0.854 µM) | MIC90 [16]: 2 µg/mL (≈ 3.42 µM) | Activity (Citrobacter koseri [17]): 100% | MIC50 (Enterococcus faecalis [18]): 128 µg/mL (≈ 219 µM) | MIC90 (Enterococcus faecalis [18]): > 128 µg/mL | MIC50 (Staphylococcus aureus [19]): 8 µg/mL (≈ 13.7 µM) | MIC90 (Staphylococcus aureus [19]): 128 µg/mL (≈ 219 µM) | MIC50 (Klebsiella aerogenes [20]): 16 µg/mL (≈ 27.3 µM) | MIC90 (Klebsiella aerogenes [20]): 64 µg/mL (≈ 109 µM) | MIC50 (Citrobacter koseri [21]): 32 µg/mL (≈ 54.6 µM) | MIC90 (Citrobacter koseri [21]): 64 µg/mL (≈ 109 µM) | MIC50 (Providencia rettgeri [22]): 1 µg/mL (≈ 1.71 µM) | MIC90 (Providencia rettgeri [22]): 32 µg/mL (≈ 54.6 µM) | MIC50 (Klebsiella pneumoniae [23]): 1 µg/mL (≈ 1.71 µM) | MIC90 (Klebsiella pneumoniae [23]): > 128 µg/mL | Activity (Klebsiella pneumoniae [24]): 100% | MIC50 (Enterobacter cloacae [25]): 2 µg/mL (≈ 3.42 µM) | MIC90 (Enterobacter cloacae [25]): 4 µg/mL (≈ 6.83 µM) | Activity (Pseudomonas aeruginosa [26]): 85.3% | Activity (Citrobacter koseri [27]): 35.7% | MIC50 (Providencia rettgeri [28]): 2 µg/mL (≈ 3.42 µM) | MIC90 (Providencia rettgeri [28]): 32 µg/mL (≈ 54.6 µM) | Activity (Providencia rettgeri [29]): 84.6% | MIC50 (Pseudomonas sp. [30]): 4 µg/mL (≈ 6.83 µM) | MIC90 (Pseudomonas sp. [30]): 16 µg/mL (≈ 27.3 µM) | Activity (Haemophilus influenzae): inactive | MIC50 (Citrobacter freundii): 2 µg/mL (≈ 3.42 µM) | MIC90 (Citrobacter freundii): 4 µg/mL (≈ 6.83 µM) | Activity (Enterococcus faecalis [31]): inactive | MIC50 (Proteus mirabilis [32]): 2 µg/mL (≈ 3.42 µM) | MIC90 (Proteus mirabilis [32]): 4 µg/mL (≈ 6.83 µM) | MIC50 (Klebsiella pneumoniae [33]): 1 µg/mL (≈ 1.71 µM) | MIC90 (Klebsiella pneumoniae [33]): 1 µg/mL (≈ 1.71 µM) | Activity [34]: 98.8% | Activity (Enterobacter cloacae [35]): 96.4% | Activity [36]: 98% | Activity (Providencia rettgeri [37]): 80% | MIC50 (Klebsiella aerogenes [38]): 1 µg/mL (≈ 1.71 µM) | MIC90 (Klebsiella aerogenes [38]): 2 µg/mL (≈ 3.42 µM) | Activity (Morganella morganii [39]): 83.3% | Activity (Klebsiella aerogenes [40]): 100% | MIC50 [41]: 16 µg/mL (≈ 27.3 µM) | MIC90 [41]: > 128 µg/mL | MIC50 (Morganella morganii [42]): 1 µg/mL (≈ 1.71 µM) | MIC90 (Morganella morganii [42]): 4 µg/mL (≈ 6.83 µM)
